# Measured values taken from ChEMBL document CHEMBL4152332, “Discovery and synthesis of novel magnolol derivatives with potent anticancer activity in non-small cell lung cancer” (Eur J Med Chem, 2018).
# Assays:
# [1] = system: Mus musculus; test: Toxicity in Balb/c mouse implanted with mouse C26 cells assessed as change in body weight at 100 mg/kg, po qd treated for 10 days and measured every 2 days (RVB = 16.4%); format: organism-based; conditions: in vivo
# [2] = system: HCC827; test: Antiproliferative activity against human HCC827 cells after 72 hrs by MTT assay; format: functional, cell-based; conditions: HCC827, 72 h
# [3] = system: NCI-H1975; test: Antiproliferative activity against human NCI-H1975 cells after 72 hrs by MTT assay; format: functional, cell-based; conditions: NCI-H1975, 72 h
# [4] = system: NCI-H460; test: Antiproliferative activity against human H460 cells after 72 hrs by MTT assay; format: functional, cell-based; conditions: NCI-H460, 72 h
# [5] = system: A549; test: Antiproliferative activity against human A549 cells after 72 hrs by MTT assay; format: functional, cell-based; conditions: A549, 72 h
# [6] = Antiproliferative activity against human SPC-A1 cells after 72 hrs by MTT assay; format: functional, cell-based; conditions: SPCA1, 72 h
# [7] = system: NCI-H1650; test: Antiproliferative activity against human NCI-H1650 cells after 72 hrs by MTT assay; format: functional, cell-based; conditions: NCI-H1650, 72 h
# [8] = system: PC-9; test: Antiproliferative activity against human PC9 cells after 72 hrs by MTT assay; format: functional, cell-based; conditions: PC-9, 72 h
# [9] = system: NCI-H441; test: Antiproliferative activity against human H441 cells after 72 hrs by MTT assay; format: functional, cell-based; conditions: NCI-H441, 72 h
# [10] = system: NCI-H358; test: Antiproliferative activity against human NCI-H358 cells after 72 hrs by MTT assay; format: functional, cell-based; conditions: NCI-H358, 72 h
# [11] = Apparent aqueous solubility of the compound by HPLC analysis; format: physicochemical; conditions: aqueous solution
# [12] = system: NCI-H1975; test: Cell cycle arrest in human NCI-H1975 cells assessed as increase in accumulation at G0/G1 phase after 24 hrs by propidium iodide staining-based flow cytometric analysis; format: functional
# [13] = system: NCI-H1975; test: Cell cycle arrest in human NCI-H1975 cells assessed as reduction in accumulation at S phase after 24 hrs by propidium iodide staining-based flow cytometric analysis; format: functional
# [14] = system: NCI-H1975; test: Cell cycle arrest in human NCI-H1975 cells assessed as reduction in accumulation at G2/M phase after 24 hrs by propidium iodide staining-based flow cytometric analysis; format: functional
# [15] = system: NCI-H1975; test: Cell cycle arrest in human NCI-H1975 cells assessed as accumulation at G0/G1 phase at 5 uM after 24 hrs by propidium iodide staining-based flow cytometric analysis (reference value: 56.11%); format: functional
# [16] = system: NCI-H1975; test: Cell cycle arrest in human NCI-H1975 cells assessed as accumulation at S phase at 5 uM after 24 hrs by propidium iodide staining-based flow cytometric analysis (reference value: 22.93%); format: functional
# [17] = system: NCI-H1975; test: Cell cycle arrest in human NCI-H1975 cells assessed as accumulation at G2/M phase at 5 uM after 24 hrs by propidium iodide staining-based flow cytometric analysis (reference value: 20.11%); format: functional
# [18] = system: NCI-H1975; test: Cell cycle arrest in human NCI-H1975 cells assessed as accumulation at G0/G1 phase at 10 uM after 24 hrs by propidium iodide staining-based flow cytometric analysis (reference value: 56.11%); format: functional
# [19] = system: NCI-H1975; test: Cell cycle arrest in human NCI-H1975 cells assessed as accumulation at S phase at 10 uM after 24 hrs by propidium iodide staining-based flow cytometric analysis (reference value: 22.93%); format: functional
# [20] = system: NCI-H1975; test: Cell cycle arrest in human NCI-H1975 cells assessed as accumulation at G2/M phase at 10 uM after 24 hrs by propidium iodide staining-based flow cytometric analysis (reference value: 20.11%); format: functional
# [21] = system: NCI-H1975; test: Cell cycle arrest in human NCI-H1975 cells assessed as accumulation at G0/G1 phase at 20 uM after 24 hrs by propidium iodide staining-based flow cytometric analysis (reference value: 56.11%); format: functional
# [22] = system: NCI-H1975; test: Cell cycle arrest in human NCI-H1975 cells assessed as accumulation at S phase at 20 uM after 24 hrs by propidium iodide staining-based flow cytometric analysis (reference value: 22.93%); format: functional
# [23] = system: NCI-H1975; test: Cell cycle arrest in human NCI-H1975 cells assessed as accumulation at G2/M phase at 20 uM after 24 hrs by propidium iodide staining-based flow cytometric analysis (reference value: 20.11%); format: functional
# [24] = system: NCI-H1975; test: Induction of apoptosis in human NCI-H1975 cells after 48 hrs by annexin V/FITC-propidium iodide staining-based flow cytometric method; format: functional, cell-based
# [25] = system: NCI-H1975; test: Induction of apoptosis in human NCI-H1975 cells assessed as early apoptotic cells at 5 uM after 48 hrs by annexin V/FITC-propidium iodide staining-based flow cytometric method ( Rvb = 6.09%); format: functional
# [26] = system: NCI-H1975; test: Induction of apoptosis in human NCI-H1975 cells assessed as late apoptotic cells at 5 uM after 48 hrs by annexin V/FITC-propidium iodide staining-based flow cytometric method ( Rvb = 10.4%); format: functional
# [27] = system: NCI-H1975; test: Induction of apoptosis in human NCI-H1975 cells assessed as necrotic cells at 5 uM after 48 hrs by annexin V/FITC-propidium iodide staining-based flow cytometric method ( Rvb = 1.01%); format: functional
# [28] = system: NCI-H1975; test: Induction of apoptosis in human NCI-H1975 cells assessed as viable cells at 5 uM after 48 hrs by annexin V/FITC-propidium iodide staining-based flow cytometric method ( Rvb = 82.5%); format: functional; conditions: NCI-H1975, 48 h, read-out: Activity
# [29] = system: NCI-H1975; test: Induction of apoptosis in human NCI-H1975 cells assessed as early apoptotic cells at 10 uM after 48 hrs by annexin V/FITC-propidium iodide staining-based flow cytometric method ( Rvb = 6.09%); format: functional
# [30] = system: NCI-H1975; test: Induction of apoptosis in human NCI-H1975 cells assessed as late apoptotic cells at 10 uM after 48 hrs by annexin V/FITC-propidium iodide staining-based flow cytometric method ( Rvb = 10.4%); format: functional
# [31] = system: NCI-H1975; test: Induction of apoptosis in human NCI-H1975 cells assessed as necrotic cells at 10 uM after 48 hrs by annexin V/FITC-propidium iodide staining-based flow cytometric method ( Rvb = 1.01%); format: functional
# [32] = system: NCI-H1975; test: Induction of apoptosis in human NCI-H1975 cells assessed as viable cells at 10 uM after 48 hrs by annexin V/FITC-propidium iodide staining-based flow cytometric method ( Rvb = 82.5%); format: functional; conditions: NCI-H1975, 48 h, read-out: Activity
# [33] = system: NCI-H1975; test: Induction of apoptosis in human NCI-H1975 cells assessed as early apoptotic cells at 20 uM after 48 hrs by annexin V/FITC-propidium iodide staining-based flow cytometric method ( Rvb = 6.09%); format: functional
# [34] = system: NCI-H1975; test: Induction of apoptosis in human NCI-H1975 cells assessed as late apoptotic cells at 20 uM after 48 hrs by annexin V/FITC-propidium iodide staining-based flow cytometric method ( Rvb = 10.4%); format: functional
# [35] = system: NCI-H1975; test: Induction of apoptosis in human NCI-H1975 cells assessed as necrotic cells at 20 uM after 48 hrs by annexin V/FITC-propidium iodide staining-based flow cytometric method ( Rvb = 1.01%); format: functional
# [36] = system: NCI-H1975; test: Induction of apoptosis in human NCI-H1975 cells assessed as viable cells at 20 uM after 48 hrs by annexin V/FITC-propidium iodide staining-based flow cytometric method ( Rvb = 82.5%); format: functional; conditions: NCI-H1975, 48 h, read-out: Activity
# [37] = system: HUVEC; test: Antimigratory activity against HUVEC after 24 to 48 hrs by phase contrast/fluorescence microscopic analysis; format: functional, cell-based; conditions: Homo sapiens
# [38] = Antitumor activity against mouse C26 cells implanted in Balb/c mouse assessed as tumor growth inhibition at 100 mg/kg, po qd and measured every 2 days relative to control; format: functional; conditions: 48 h, read-out: TGI
# [39] = system: Mus musculus; test: Toxicity in Balb/c mouse implanted with mouse C26 cells assessed as mouse death at 100 mg/kg, po qd treated for 10 days; format: organism-based; conditions: in vivo, 240 h
# [40] = system: HCC827; test: Potency index, ratio of IC50 for honokiol to IC50 for test compound for antiproliferative activity against human HCC827 cells after 72 hrs by MTT assay; format: functional
# [41] = system: NCI-H1975; test: Potency index, ratio of IC50 for honokiol to IC50 for test compound for antiproliferative activity against human NCI-H1975 cells after 72 hrs by MTT assay; format: functional
# [42] = system: NCI-H460; test: Potency index, ratio of IC50 for honokiol to IC50 for test compound for antiproliferative activity against human H460 cells after 72 hrs by MTT assay; format: functional
# [43] = system: HCC827; test: Potency index, ratio of IC50 for magnolol to IC50 for test compound for antiproliferative activity against human HCC827 cells after 72 hrs by MTT assay; format: functional
# [44] = system: NCI-H1975; test: Potency index, ratio of IC50 for magnolol to IC50 for test compound for antiproliferative activity against human NCI-H1975 cells after 72 hrs by MTT assay; format: functional
# [45] = system: NCI-H460; test: Potency index, ratio of IC50 for magnolol to IC50 for test compound for antiproliferative activity against human H460 cells after 72 hrs by MTT assay; format: functional
smiles,measurement,setting,value
C=CCc1ccc(O)c(-c2cc(CC=C)cc(CN3CCN(CCOC)CC3)c2O)c1,Activity,[1],12.4%
same,IC50,[2],6.8 µM
same,IC50,[3],7.12 µM
same,IC50,[4],5.92 µM
same,IC50,[5],7.89 µM
same,IC50,[6],7.27 µM
same,IC50,[7],5.12 µM
same,IC50,[8],13.5 µM
same,IC50,[9],10.2 µM
same,IC50,[10],7.49 µM
same,solubility,[11],120 µg/mL
same,Activity,[12],Dose-dependent effect
same,Activity,[13],Dose-dependent effect
same,Activity,[14],Dose-dependent effect
same,Activity,[15],61.59%
same,Activity,[16],17.71%
same,Activity,[17],18.05%
same,Activity,[18],66.25%
same,Activity,[19],21.85%
same,Activity,[20],11.15%
same,Activity,[21],69.91%
same,Activity,[22],11.17%
same,Activity,[23],16.86%
same,Activity,[24],Dose-dependent effect
same,Activity,[25],6.13%
same,Activity,[26],22.8%
same,Activity,[27],0.47%
same,viability at 5 µM,[28],72.6%
same,Activity,[29],8.79%
same,Activity,[30],22.5%
same,Activity,[31],0.31%
same,viability at 10 µM,[32],68.4%
same,Activity,[33],25.1%
same,Activity,[34],51.1%
same,Activity,[35],0.9%
same,viability at 20 µM,[36],22.9%
same,Activity,[37],Dose-dependent effect
same,inhibition in vivo at 100 mg/kg,[38],4.14%
same,Activity,[39],Non-Toxic
same,Ratio IC50,[40],4
same,Ratio IC50,[41],4
same,Ratio IC50,[42],4
same,Ratio IC50,[43],8
same,Ratio IC50,[44],8
same,Ratio IC50,[45],8
